Measurements reported in patent US10016439B2, “Fused imidazole compounds” (ONO PHARMACEUTICAL CO., LTD., priority 2014, dated 2018).

How the values were obtained:
GABAA α5/β3/γ2 [1] = biological target: T1, GABAA α5/β3/γ2 (Homo sapiens (Human), UniProt P18507+P31644); assay: Binding assay (Scintillation Proximity Assay, [3H]-Ro15-1788); details: membranes of HEK293 cells expressing GABAA α5/β3/γ2
Method: The GABAAα5/β3/γ2 protein used for the Scintillation Proximity Assay was derived from membranes produced from HEK293 GABAA α5/β3/γ2 expressing HEK293 cell line. HEK293 GABAA α5/β3/γ2 expressing HEK293 cell line was cultured, then harvested and centrifuged the cells. Membranes were produced by homogenization of the cell pellet with a tissue homogenizer. The resulting homogenate was centrifuged at 48,000 g for 30 minutes, re-suspended and washed twice with 10 mM potassium phosphate buffer, pH 7.4. Final resuspension of membranes took place in buffer containing 10 mM potassium phosphate and 100 mM KCl.
For assay, test compound (50×) was added 0.5 μl per well to a white-walled clear-bottomed 384-well plate.
Full signal controls were prepared by the addition of 0.5 μl of DMSO to the appropriate wells. Mixture of 10 μl of protein and 10 μl of PVT-WGA beads (0.2 mg/well) were added to the plate. Both protein and bead were diluted to the desired concentration with 10 mM potassium phosphate, pH 7.4, containing 100 mM KCl. The plate was pre-incubated for 30 minutes at room temperature with shaking before initiation of the reaction by the addition of radioligand. 5 μl of [^3H]-Ro15-1788 was added at a concentration of 30 nM (5×) and the plates sealed. The reaction mix was incubated at room temperature overnight with gentle agitation on a plate shaker. The final DMSO concentration for all phases of the screening was 2% (v/v). At the end of the overnight incubation, the plates were centrifuged for two minutes at 1,000 rpm prior to reading on a Perkin Elmer Microbeta.
Concentration-response testing was performed in duplicate and the percent effect calculated for each replicate data point. The raw data was entered in Activity Base and the curves were fitted to the mean data using Excel and XL Fit, and shown as Ki.

GABAA α5/β3/γ2 [2] = biological target: T1, GABAA α5/β3/γ2; assay: Functional assay (PatchXpress automated patch-clamp), α5 subtype; format: cell-based; details: % change of GABA EC20 response; compound 1 μM; HEK293 cells
Description: (§1) GABAA α5/β3/γ2 HEK293 cell line was used throughout the functional assay in PatchXpress (Molecular Devices), the automated patch-clamp system. Cells stably expressing the appropriate GABAA subtype (α5/β3/γ2, α1/β3/γ2, α2/β3/γ2 or α3/β3/γ2) were dissociated from poly-D-lysine treated tissue culture flasks using a mixture of one part TrypLE (Invitrogen, cat #12604): one part Dulbecco's Phosphate Buffered Saline (Invitrogen, cat #14190). The dissociated cells were re-suspended in growth media (D-MEM/F-12 media (Invitrogen, cat #11320) supplemented with 10% (v/v) Foetal Bovine Serum (Invitrogen, cat #10082) and 1% (v/v) non-essential amino acids (Invitrogen, cat #11140)) and allowed to recover for one hour at 37° C. in a humidified incubator with 5% CO2. At the end of the recovery period cells were centrifuged at 1,000 rpm for two minutes and the resulting pellet re-suspended in external solution (in mM; 137 NaCl, 4 KCl, 10 HEPES, 1.8 CaCl2, 1 MgCl2, 10 glucose, pH set to 7.35 with NaOH). Cells were counted and diluted to 2.5×10^6/ml in external solution. The patch-clamp assay protocol involved determination of current amplitude with control applications of GABA EC20 containing concentration-matched DMSO (0.3% v/v), then pre-incubation of the test compound for one minute prior to the addition of the same compound diluted with the GABA EC20. Compound and/or GABA was applied for five seconds, with two minute wash periods between applications. No wash period was present at the end of the compound pre-application stage. The internal solution comprised (in mM) 90 KCl, 50 KF, 11 EGTA, 10 HEPES, 1 MgCl2, 2 Mg-ATP, the pH was set to 7.35 with KOH and the holding potential was −60 mV. Compounds were assayed at a concentration of 1 μM.

Lister Hooded rat = assay: Rat Novel Object Recognition test; format: in vivo; details: 20 mg/kg p.o., 30 min prior to T1 and T2; 24 hr delay
Description: NOR (Novel Object Recognition test) is a two-trial spontaneous test of visual recognition memory that relies on the animal's natural tendency to explore novelty (Behav Brain Res, 1998, 31(1): pp. 47-59). Variation of the inter-trial interval (ITI) between acquisition (T1) and retention trials (T2) may be used to investigate either deficits or improvements in memory. A temporal performance deficit can be induced by increasing the ITI (approximately 24 hr), such that exploration of both objects in T2 is similar, enabling the pro-cognitive abilities of novel compounds to be evaluated.
Male, Lister Hooded rat (228-273 g at start of study; Harlan UK) was used.
Habituation to the grey, matt perspex NOR box twice a day, on two consecutive days, prior to testing. Each habituation session, consisted of a 3 min exposure to the empty test box (46×30×45 cm), followed by 1 min in the side annex (13×30×45 cm), and then a further 3 min in the test area. […]
Experimental protocol tests for improvement in attention/recognition memory via reversal of a 24 h delay-induced deficit in NOR. […] All performance measures were determined for each individual animal before statistical handling.
The T1 score, d1 and d2 index were analysed using 2-way ANOVA (treatment×object) followed by planned comparisons post-hoc LSD using single measure parametric analysis, based on least square (predicted) means in InVivoStat, UK.

GABAA α1/β3/γ2 = GABAA α1/β3/γ2 (Homo sapiens (Human), UniProt P14867+P18507); assay: Functional assay (PatchXpress automated patch-clamp), α1 subtype; format: cell-based; details: % change of GABA EC20 response; compound 1 μM; HEK293 cells
Chain of GABAA α1/β3/γ2 (P14867 28-456): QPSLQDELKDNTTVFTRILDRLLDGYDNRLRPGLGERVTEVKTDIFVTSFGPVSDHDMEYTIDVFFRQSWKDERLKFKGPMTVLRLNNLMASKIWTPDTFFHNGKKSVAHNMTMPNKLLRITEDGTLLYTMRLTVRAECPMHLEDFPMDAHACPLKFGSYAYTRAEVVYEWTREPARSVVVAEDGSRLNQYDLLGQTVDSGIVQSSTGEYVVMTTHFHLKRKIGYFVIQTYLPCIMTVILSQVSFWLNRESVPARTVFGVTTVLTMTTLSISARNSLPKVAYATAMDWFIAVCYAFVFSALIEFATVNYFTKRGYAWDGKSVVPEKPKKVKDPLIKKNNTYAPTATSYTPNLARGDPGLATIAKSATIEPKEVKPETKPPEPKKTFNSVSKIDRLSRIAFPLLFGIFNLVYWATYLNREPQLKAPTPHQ
Chain of GABAA α1/β3/γ2 (P28472 26-473 partner): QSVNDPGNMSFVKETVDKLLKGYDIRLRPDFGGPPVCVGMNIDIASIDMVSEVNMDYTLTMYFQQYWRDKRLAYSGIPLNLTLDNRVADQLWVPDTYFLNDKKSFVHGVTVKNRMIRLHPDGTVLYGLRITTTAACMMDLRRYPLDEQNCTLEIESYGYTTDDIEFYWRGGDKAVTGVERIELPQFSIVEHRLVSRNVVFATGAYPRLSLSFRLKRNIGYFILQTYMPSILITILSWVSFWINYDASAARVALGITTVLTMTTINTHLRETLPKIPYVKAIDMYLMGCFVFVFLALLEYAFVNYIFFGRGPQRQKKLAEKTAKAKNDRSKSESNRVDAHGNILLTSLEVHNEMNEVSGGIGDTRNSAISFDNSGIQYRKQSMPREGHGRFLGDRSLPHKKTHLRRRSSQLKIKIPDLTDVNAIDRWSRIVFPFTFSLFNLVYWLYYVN
Chain of GABAA α1/β3/γ2 (P18507 40-475): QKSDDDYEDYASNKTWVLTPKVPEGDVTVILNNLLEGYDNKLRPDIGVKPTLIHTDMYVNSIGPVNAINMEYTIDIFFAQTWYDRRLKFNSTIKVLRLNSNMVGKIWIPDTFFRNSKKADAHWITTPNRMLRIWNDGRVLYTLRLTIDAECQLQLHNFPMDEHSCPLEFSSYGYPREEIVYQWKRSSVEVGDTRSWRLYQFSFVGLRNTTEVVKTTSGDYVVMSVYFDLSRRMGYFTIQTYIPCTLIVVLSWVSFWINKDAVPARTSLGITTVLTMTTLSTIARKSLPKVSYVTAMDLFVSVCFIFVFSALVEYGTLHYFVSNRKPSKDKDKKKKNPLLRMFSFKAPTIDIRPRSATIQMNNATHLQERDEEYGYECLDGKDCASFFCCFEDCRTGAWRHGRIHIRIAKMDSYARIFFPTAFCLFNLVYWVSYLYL
Description: as §1

T1 sequence (P31644 32-462): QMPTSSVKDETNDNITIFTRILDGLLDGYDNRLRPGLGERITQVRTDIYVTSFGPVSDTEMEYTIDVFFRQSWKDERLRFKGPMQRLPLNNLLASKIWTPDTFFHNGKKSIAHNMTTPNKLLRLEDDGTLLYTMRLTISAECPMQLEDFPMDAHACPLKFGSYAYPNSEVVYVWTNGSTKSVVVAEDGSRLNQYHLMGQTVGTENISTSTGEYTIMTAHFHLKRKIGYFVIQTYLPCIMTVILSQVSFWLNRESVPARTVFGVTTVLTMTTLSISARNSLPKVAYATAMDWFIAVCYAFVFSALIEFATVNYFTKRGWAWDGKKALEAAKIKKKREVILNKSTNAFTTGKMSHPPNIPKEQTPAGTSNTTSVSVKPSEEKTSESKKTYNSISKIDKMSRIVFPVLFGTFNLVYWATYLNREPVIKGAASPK
T1 sequence (P28472 26-473 partner): as the sequence (P28472 26-473 partner) above
T1 sequence (P18507 40-475): as the sequence (P18507 40-475) above

Ki (GABAA α5/β3/γ2 [1]): 900 pM
inhibition at 1 µM (GABAA α5/β3/γ2 [2]): 42.5%
inhibition at 1 µM (GABAA α1/β3/γ2): 9.8%
Compound: Cc1cc(Nc2cc3c(cc2Cl)N(C)C(=O)CO3)nc2c1ncn2CC1CC1 [Example 160, 6-Chloro-7-((3-(cyclopropylmethyl)-7-methyl-3H-imidazo[4,5-b]pyridin-5-yl)amino)-4-methyl-2H-benzo[b][1,4]oxazin-3(4H)-one]
d2 index score (performance in NOR) (Lister Hooded rat): significantly improved performance
